According to patent US20110319338A1, “PEPTIDES THAT BIND EUKARYOTIC TRANSLATION INITIATION FACTOR 4E” (The Board of Regents of the University of Texas System, priority 2008, published 2011):
Entries after “also recorded” stand apart in the source; their conditions may differ. Square brackets hold non-standard residues; d marks the D form. Peptide text beside a SMILES is read from it. pGlu = O=C1CC[C@@H](C(=O)O)N1

Assays:
[1] = Tolerability in xenograft mice: observation, histology and TUNEL-staining of tissues; format: in vivo
From the text: FIGS. 11A-11B. TUNEL-staining of tissues of saline- and peptide-treated mice. […] Shown are normal tissues of the brain, heart, lung, liver, breast, pancreas and ovary, and tumor implants on the omentum. Bar, 60 micrometers. Pancreatic and ovarian sections show normal pancreatic (P) and ovarian (O) tissues plus adjacent tumor (T). Also shown are normal tissues of the pituitary and bone marrow. Bar, 20 micrometers
(§1) Animal Studies. Animal studies were approved by the Institutional Animal Care and Use Committee. The ES-2 cell line stably expressing enhanced green fluorescent protein (ES-2-GFP) has been described in previous work (Hara et al., 2007). Four-week-old female nude mice were inoculated i.p. at one site in the lower abdomen with 10^6 ES-2-GFP cells. At Day 9 after tumor cell inoculation, one group of mice (n=5) were killed by CO2 asphyxiation. At Day 9, other groups of mice were administered by i.p. injection with 200 microliters of phosphate-buffered saline (PBS) (n=11), [DLys6]GnRH (n=11) or [DLys6]GnRH-4EBP1-WT peptide (n=11) at a dose of 3.0 nanomoles per gram body weight. Peptides were suspended in PBS and administered at a volume of 200 microliters. PBS or peptide was administered every 2 days thereafter for 11 days (6 doses in total). Mice were sacrificed on Day 20, and ascites harvested. Tumors were visualized under a Leica MZML III fluorescence stereomicroscope equipped with mercury lamp power supply and green fluorescent protein (GFP) filter set. Tumor burden was quantified by measuring areas of fluorescence signals within the abdominal cavity in captured images by using Image Pro Plus 5.0 software (Media Cybernetics, Bethesda, Md.). Slides of paraffin-embedded tissues collected from mice were stained with hematoxylin-eosin. TUNEL-staining of tissue sections was performed using the in situ cell death detection kit (Roche).

[2] = Peptide stability in serum and in culture medium (Western blot, MALDI TOF); format: in vitro ADME; conditions: human, serum (undiluted, of an ovarian cancer patient), 37° C.
Description: FIGS. 6A-6B. Stability of [DLys6]GnRH-4EBP1 peptide. Biotinylated peptide was added to McCoys' 5A medium containing 10% fetal bovine serum (FBS), and to human serum. Samples were immediately withdrawn (0 hours). The remaining mixtures were incubated at 37° C., and samples taken thereafter at 1, 3, 6, 12 and 24 hours. In (FIG. 6A), samples were analyzed by Western blot using horseradish peroxidase-conjugated strepatavidin. In (FIG. 6B), samples of peptide incubated in serum for 0, 12 and 24 hours were analyzed by Matrix Assisted Laser Desorption Ionization-Time of Flight (MALDI TOF) mass spectrometry. Peaks corresponding to intact peptide (mass: 3990) are indicated. Peaks of 1256, 1684 and 3384 in mass are likely to represent degradation products of the peptide.
Peptide stability studies. Biotinylated peptide (7 micrograms) was mixed with McCoys' 5A medium containing 10% FBS in a final volume of 140 microliters. A sample of 20 microliters was immediately removed and frozen. The remaining mixture was incubated at 37° C., and 20 microliters samples taken thereafter at 1, 3, 6, 12 and 24 hours. […] Samples were analyzed by Western blot using horseradish peroxidase-conjugated strepatavidin, and by MALDI TOF mass spectrometry using an Applied Biosystems 4700 Proteomic Analyzer.

luteinizing hormone (LH) = assay: Assay of serum LH levels by radioimmunoassay; conditions: serum collected at end of regimen (Day 20)
[3] = Mouse serum antibody assays; format: in vivo, mice; conditions: serum 1:100 dilution
Description: FIGS. 12A-12C. Serum luteinizing hormone (LH) levels and serum antibody reactivity.
Mouse serum antibody assays. Wells in 96-well plates were coated with 50 nanograms of [DLys6]GnRH-4EBP1-WT peptide or with 100 nanograms of ES-2 cell lysate. Serum of saline- and peptide-treated mice (1:100 dilution) was incubated in wells for 2 hours at room temperature. Bound IgG was detected using horseradish peroxidase-conjugated goat anti-mouse IgG, and measured at an optimal density of 450 nm.

ES-2-GFP cells = assay: Mouse i.p. xenograft model of epithelial ovarian cancer; format: in vivo; conditions: for Deaths (died before completing treatment regimen) / Drop-outs (euthanized prior to completion due to morbidity related to ascites accumulation): of 11 mice per group
Description: FIGS. 4A-4C. Anti-tumor activity of [DLys6]GnRH-4EBP1-WT peptide in a xenograft model of EOC. Female nude mice were inoculated i.p. with one million ES-2-GFP cells. At Day 9 after tumor cell inoculation, one group of mice (n=5) was sacrificed (pre-treatment). At Day 9, other groups of mice were administered by i.p. injection with saline (n=11), [DLys6]GnRH (n=11) or [DLys6]GnRH-4EBP1-WT (n=11) at a dose of 3.0 nanomoles per gram body weight Saline or peptide was administered every 2 days thereafter for 11 days (6 doses in total), and mice were sacrificed on Day 20. (FIG. 4A) Visualization under a fluorescence stereoscope of i.p. tumors in pre-treatment mice (at Day 9) including implants on the omentum (ome), and in mice treated with saline, with agonist alone and with [DLys6]GnRH-4EBP1-WT (at Day 20). (FIG. 4B) Hematoxylin eosin-stained sections of tissues of pre-treatment mice (at Day 9) and of saline- and peptide-treated mice (at Day 20). Tumors attached to the omentum extensively involved the pancreas in saline- and agonist-treated mice. Also shown are tumors attached to the broad ligament and mesentery. Bar, 200 micrometers. (FIG. 4C) Quantification of i.p. tumor burden in pre-treatment and treated mice that completed the regimen, expressed as the average percent of area of fluorescence within the abdominal cavity in captured images, and volume of ascites. Median values of tumor burden and ascites volume for each group and statistical significance of differences between groups are indicated.
as §1
To determine the efficacy of [DLys6]GnRH-4EBP1-WT peptide in vivo, a mouse i.p. xenograft model was used that was established from an ES-2 cell line stably expressing GFP (Hara et al., 2007). This model mimics the typical behavior of epithelial ovarian cancer, including i.p. dissemination and ascites formation. This example comprised three treatment groups of mice i) saline, ii) [DLys6]GnRH agonist, and iii) [DLys6]GnRH-4EBP1-WT, where sample size of each group was n=11. The first dose of peptide or saline was administered i.p. to mice at Day 9 after tumor cell inoculation. At Day 9, no ascites had yet formed but tumors had established on the omentum, broad ligament and mesentery which are common sites of ovarian cancer cell attachment (FIGS. 4A,B). A schedule in which peptide was administered every 2 days was chosen, based on the studies of peptide stability in serum (FIG. 6).
Based on studies of other agonist conjugates in xenograft models (19-21), a peptide dose of 3.0 nanomoles per gram body weight was used. […]

CC[C@H](C)[C@H](NC(=O)[C@H](CCCNC(=N)N)NC(=O)[C@@H](NC(=O)CNC(=O)CNC(=O)[C@@H]1CCCN1C(=O)[C@H](CCCNC(=N)N)NC(=O)[C@H](CC(C)C)NC(=O)[C@@H](CCCCN)NC(=O)[C@H](Cc1ccc(O)cc1)NC(=O)[C@H](CO)NC(=O)[C@H](Cc1c[nH]c2ccccc12)NC(=O)[C@H](Cc1c[nH]cn1)NC(=O)[C@@H]1CCC(=O)N1)[C@@H](C)O)C(=O)N[C@H](C(=O)N[C@@H](Cc1ccc(O)cc1)C(=O)N[C@@H](CC(=O)O)C(=O)N[C@@H](CCCNC(=N)N)C(=O)N[C@@H](CCCCN)C(=O)N[C@@H](Cc1ccccc1)C(=O)N[C@@H](CC(C)C)C(=O)N[C@@H](CCSC)C(=O)N[C@@H](CCC(=O)O)C(=O)N[C@@H](CS)C(=O)N[C@@H](CCCNC(=N)N)C(=O)N[C@@H](CC(N)=O)C(=O)N[C@@H](CO)C(=O)N1CCC[C@H]1C(=O)N[C@H](C(=O)N[C@H](C(=O)O)[C@@H](C)O)C(C)C)[C@@H](C)CC [[DLys6]GnRH-4EBP1-WT] ([pGlu]HWSY[dK]LRPGGTRIIYDRKFLMECRNSPVT-OH)
TUNEL-positive cells in other normal tissues (brain, heart, lung and bone marrow) ([1]; Day 20): not detected
TUNEL-staining in ovaries ([1]; Day 20): some staining was observed
TUNEL-staining of cells of the liver and pancreas ([1]; Day 20): TUNEL-negative
TUNEL-staining in breast and pituitary tissues ([1]; Day 20, tissues that express GnRH-RI): No TUNEL-staining was detected
half-life [2]: 300 to 360 min
serum LH levels compared with saline-treated mice (luteinizing hormone (LH)): not significantly different
mice with antibody reactivity to [DLys6]GnRH-4EBP1-WT at least two standard deviations above mean background in saline-treated mice [3]: 2 of 8
Mice euthanized, day (ES-2-GFP cells; drop-out mice, individual animals): n = 1, day 15; also recorded: n = 1, day 17
day of death before completing treatment regimen (ES-2-GFP cells; mouse, in vivo): 19 days
Deaths (died before completing treatment regimen) (ES-2-GFP cells): 1
Drop-outs (euthanized prior to completion due to morbidity related to ascites accumulation) (ES-2-GFP cells): 2
Deaths (died before completing treatment regimen) (ES-2-GFP cells; listed as [DLys6]GnRH-4EBP-WT): one
Drop-outs (euthanized prior to completion due to morbidity related to ascites accumulation) (ES-2-GFP cells; listed as [DLys6]GnRH-4EBP-WT): two
